# According to patent publication US20240226226A1, “KAPPA-OPIOID RECEPTOR AGONIST IMPLANTS FOR TREATMENT OF PRURITUS” (Titan Pharmaceuticals, Inc., priority 2021, published 2024):
# Key:
# [1] = Mouse plasma concentration from EVA mouse prototype implants versus subcutaneous acute injection; type: in vivo; settings: male C57BL/6 mice, one prototype implant per mouse, compared with acute 0.3 mg/kg subcutaneous injection
# Description: Male C57BL/6 mice were sampled for pharmacokinetic analysis following subcutaneous acute injection with Compound A in saline (0.3 mg/kg drug was administered, using an injection volume of 10 mL/kg), or following implantation with one Compound A implant in each mouse. The implants used were as described in Example 2.
# [2] = system: mice challenged with the pruritogen 5′-GNTI; test: Scratching events in mice after 5′-GNTI challenge over an 84-day period, Compound A-containing implants; type: in vivo, mouse; settings: male C57BL/6 mice, one implant (26×2.6 mm, 60 mg Compound A), 5′GNTI 0.1 mg/kg s.c. on Days 28, 56 and 84, initial 30 minutes of observation
# Description: Male C57BL/6 mice (8-14 wks old, N=7-8) were each implanted with one Compound A-containing implant (26×2.6 mm, 50% loading, 60 mg Compound A/implant). Controls were untreated mice or mice implanted with placebo (EVA-only) implants (N=5-7). On Days 28, 56 and 84 post-implantation, the mice were transferred to behavioral rooms during the light cycle, at least 2 hours prior to challenge with the pruritogen 5′-GNTI to minimize stress effects on grooming and movement. 5′GNTI (0.1 mg/kg) was subcutaneously injected just caudal to the head/neck, and the mice were immediately placed in an observation chamber (25×25 cm) with plexiglas walls and light-colored melamine flooring and video recorded from above for up to 90 minutes after pruritogen challenge, and then removed and placed back into their home cages in the housing colony. The video recordings were subsequently analyzed for the quantity of scratching behavior, classified as either a forepaw scratching bout behind the ears, or hind paw scratching bout of the flank/back of the animal, over the initial 30 minutes of observation.
# (D28C=control mice at day 28, D28A=mice with Compound A implants at day 28, D56C=control mice at day 56, D56A=mice with Compound A implants at day 56, D84C=control mice at day 84, D84A=mice with Compound A implants at day 84).
# [3] = system: mice challenged with 5′-guanidinonaltrindole (5′GNTI); test: Mouse itch model, 5′GNTI challenge, mouse prototype EVA implants; type: in vivo; settings: male C57BL/6 mice, 1 prototype implant (10 mg Compound A) per mouse
# Description: Compound A implants were formulated in ethylene-vinyl acetate (EVA) matrices for testing in male C57BL/6 mice. Because of the small size of the mouse, test implant prototypes (25 mm×1.5 mm) containing a limited quantity of the drug (10 mg) were used for this mouse model study. […] After extrusion, the implant prototypes were washed, dried, packaged and sterilized by E-beam irradiation at 25 KGy.
# Following the implantation of one Compound A implant in each mouse, the treated mice with drug-containing implants (N=5) and untreated control mice with placebo implants or sham surgery (N=7) were challenged with 5′-guanidinonaltrindole (5′GNTI) at Days 1, 14 and 28 post-implantation. Scratch events were monitored.
# [4] = Blood plasma levels from Compound A implants in rats; type: in vivo; settings: one implant per rat, 17.5 mg Compound A
# Description: Ten coextruded implants were prepared having a core comprising 50% of Compound A (as a salt) and 50% ethylene vinyl acetate, and a shell comprising 3% Compound A and 97% ethylene vinyl acetate. The implants measured 26 mm length×1.5 mm diameter, weighed 48 mg, and contained 17.5 mg Compound A. After extrusion, the implants were washed, dried, packaged and sterilized by E-beam irradiation at 25 KGy.
# The implants were implanted into rats (one implant per rat), and blood plasma levels were measured. After an initial peak from drug on the implant surface, the rat plasma levels were sustained within a range of about 1.4 to about 4 ng/ml for about 2,000 hours (about 83 days).
structure (smiles),measurement,setting,value
CCCC[C@@H](NC(=O)[C@@H](Cc1ccccc1)NC(=O)[C@H](N)Cc1ccccc1)C(=O)N[C@H](CCCCN(C)C)C(=O)NCc1ccncc1 [Compound A],plasma concentrations of Compound A over the first 14 days post-implantation,[1],well above the levels estimated for therapeutic anti-pruritus activity
same,scratch events versus control mice,[2],reduced scratch events
same,scratching behavior at day 28 post-implantation,[3]; 5′GNTI challenge,returning to control levels
same,sustained itch suppression post-implantation,"[3]; 5′GNTI challenge at Days 1, 14 and 28",up to 14 days
same,time for which plasma levels were sustained,[4],"2000 hours and about 2,000 hours"
